The results in this text go back to US7074785B2, “Δ1-pyrrolines used as pesticides” (Bayer Cropscience AG, priority 2001, dated 2006).

Read-outs that look alike come from different tables or passages of the source.

A short description of data set [1]: logP determination by HPLC (reversed-phase C18, EEC Directive 79/831 Annex V.A8). It counts as physicochemical. As for the experimental part:
The logP values stated in the above tables and Preparation Examples are determined in accordance with EEC Directive 79/831 Annex V.A8 by HPLC (High Performance Liquid Chromatography) using a reversed-phase column (C 18). Temperature: 43° C.
In the acidic range at pH 2.3 the determination takes place using 0.1% aqueous phosphoric acid and acetonitrile as the mobile phases; linear gradient from 10% acetonitrile to 90% acetonitrile. Corresponding results are marked in the tables by “a)”
In the neutral range at pH 7.5 the determination takes place using 0.01 molar aqueous phosphate buffer solution and acetonitrile as the mobile phases; linear gradient from 10% acetonitrile to 90% acetonitrile. Corresponding results are marked in the tables by “b)”
Calibration is carried out using unbranched alkan-2-ones (having 3 to 16 carbon atoms), with known logP values (the logP values determined on the basis of the retention times using linear interpolation between two successive alkanones).

Data set [2] deals with army worm (Spodoptera frugiperda) caterpillars. Nature of the data set: Spodoptera frugiperda test. It counts as in vivo. The conditions noted are these: in Brassica oleracea, 168 h, read-out: Kill rate in % after 7 d, 100 ppm, cabbage leaves dipped, Spodoptera frugiperda.
Data set [3] concerns greenhouse red spider mite (Tetranychus urticae). Nature of the data set: Tetranychus test (OP resistant/dip treatment). It counts as in vivo. The conditions noted are these: 168 h, read-out: Kill rate in % after 7 d, 100 ppm, bean plants dipped, Tetranychus urticae OP-resistant. As for the experimental part:
Tetranychus Test (OP Resistant/Dip Treatment)
(§1) Solvent: 7 parts by weight of dimethylformamide
After the desired period of time, the effect in % is determined.

The test system of data set [4] is larvae of the mustard beetle (Phaedon cochleariae). Description: Phaedon larvae test. The conditions noted are these: in Brassica oleracea, 168 h, read-out: Kill rate in % after 7 d, 100 ppm, cabbage leaves dipped, Phaedon cochleariae larvae.
For data set [5], the system named is Heliothis virescens caterpillars. Description: Heliothis virescens test. The format is in vivo. The conditions noted are these: 100 ppm, soya bean shoots dipped.
Description: as §1

For data set [6], the system named is caterpillars of the cabbage moth (Plutella xylostella, sensitive strain). Description: Plutella test, sensitive strain. The format is in vivo. The conditions noted are these: 100 ppm, cabbage leaves dipped.
Description: Plutella Test, Sensitive Strain
as §1

Data set [7] has as its system caterpillars of the cabbage moth (Plutella xylostella), resistant strain. Nature of the data set: Plutella test, resistant strain. The format is in vivo. The conditions noted are these: 100 ppm, cabbage leaves dipped.
Description: Plutella Test, Resistant Strain
as §1

Data set [8] deals with army worm (Spodoptera exigua) caterpillars. Description: Spodoptera exigua test. The conditions noted are these: 100 ppm, cabbage leaves dipped. The format is in vivo.
Description: as §1

The test system of data set [9] is Boophilus microplus resistant/SP-resistant Parkhurst strain, adult satiated females. Nature of the data set: Test with Boophilus microplus resistant/SP-resistant Parkhurst strain. The conditions noted are these: injected into abdomen, fertile egg deposition after 7 days. It counts as in vivo. The method, then: Test with Boophilus microplus Resistant/SP-Resistant Parkhurst Strain
Test animals: Adult satiated females
(§2) Solvent: Dimethyl sulphoxide
20 mg of active compound are dissolved in 1 ml of dimethyl sulphoxide. Lower concentrations are prepared by dilution in the same solvent.
The test is carried out in 5 replications. 1 μl of the solutions is injected into the abdomen, and the animals are transferred to dishes and kept in a climate-controlled room. After 7 days, activity is checked by examination for deposition of fertile eggs. Eggs whose fertility is not externally visible are stored in glass tubes in a controlled-environment cabinet until the larvae have hatched. An activity of 100% denotes that none of the ticks has laid fertile eggs.

The test system of data set [10] is Adult Musca domestica, Reichswald strain (OP, SP, carbamate-resistant). Description: Test with flies (Musca domestica). The conditions noted are these: filter paper disc. It counts as in vivo. The method, then:
Test with Flies (Musca domestica)
Test animals: Adult Musca domestica, Reichswald strain (OP, SP, carbamate-resistant)
as §2
20 mg of active compound are dissolved in 1 ml dimethyl sulphoxide. Lower concentrations are prepared by dilution with distilled water.
2 ml of this active compound preparation are pipetted on filter paper discs (Ø9.5 cm) in Petri dishes of corresponding dimensions. After the filter discs have been dried, 25 test animals are transferred to the Petri dishes, which are then covered.
After 1, 3, 5, 24 and 48 hours the activity of the active compound preparation is measured. 100% means that all flies have been killed, 0% means that no fly has been killed.

The mark [11] stands for this setting: HPLC, acidic range pH 2.3, 0.1% aqueous phosphoric acid/acetonitrile; marked a), read-out: log P (pH 2.3).
Setting [12] is: HPLC, neutral range pH 7.5, 0.01 molar phosphate buffer/acetonitrile; marked b), read-out: log P (pH 7.5).

On to `COC(=O)Nc1ccc(-c2ccc(C3CCC(c4c(F)cccc4F)=N3)cc2)cc1` (stereo not shown) [Compound 1, methyl 4′-[5-(2,6-difluorophenyl)-3,4-dihydro-2H-pyrrol-2-yl]-1,1′-biphenyl-4-ylcarbamate], for which the chromatographic logP was 2.31 in data set [1] (setting [11]) and 3.52 in data set [1] (setting [12]). Besides, the pest or weed control at 100 ppm was ≥ 95% in data set [2], ≥ 85% in [3] and ≥ 85% in data set [4].
With `CC(C)OC(=O)Nc1ccc(-c2ccc(C3CCC(c4c(F)cccc4F)=N3)cc2)cc1` (stereo not shown) [Compound 7], the chromatographic logP is 3 in [1] (setting [11]) and 4.19 in [1] (setting [12]). For the same compound, the “Kill rate in % after 7 d” value in data set [5], in data set [6], in data set [7] and in data set [8] was 100% throughout. In addition, the pest or weed control at 100 ppm was ≥ 95% in [2], ≥ 85% in data set [3] and ≥ 85% in data set [4]. The Activity/kill in % in [9] (20 μg/animal) stood at 0%; in data set [9] (100 μg/animal) it was 40%.
Regarding `CCOC(=O)Nc1ccc(-c2ccc(C3CCC(c4c(F)cccc4F)=N3)cc2)cc1` (stereo not shown) [Compound 6], the chromatographic logP was found to be 2.62 in [1] (setting [11]) and 3.85 in data set [1] (setting [12]). In addition, the “Kill rate in % after 7 d” value in data set [5], in [6], in data set [7] and in [8] was 100% throughout. The pest or weed control at 100 ppm in data set [2] was ≥ 95%; in [3] it was ≥ 85%; in data set [4], ≥ 85%.
With `CCCOC(=O)Nc1ccc(-c2ccc(C3CCC(c4c(F)cccc4F)=N3)cc2)cc1` (stereo not shown) [Compound 2, n-propyl 4′-[5-(2,6-difluorophenyl)-3,4-dihydro-2H-pyrrol-2-yl]-1,1′-biphenyl-4-ylcarbamate], the chromatographic logP stood at 3.02 in data set [1] (setting [11]) and 4.24 in data set [1] (setting [12]). Moreover, the pest or weed control at 100 ppm in [2] was ≥ 95%; in [3] it was ≥ 85%; in data set [4], ≥ 85%.
As to `O=C(Nc1ccc(-c2ccc(C3CCC(c4c(F)cccc4F)=N3)cc2)cc1)OCc1cccs1` (stereo not shown) [Compound 27], the chromatographic logP was determined as 3.28 in data set [1] (setting [11]) and 4.36 in data set [1] (setting [12]). The pest or weed control at 100 ppm in data set [2] is ≥ 95%; in data set [3] it was ≥ 85%; in [4] it was ≥ 85%.
In the case of `CNC(=O)Nc1ccc(-c2ccc(C3CCC(c4c(F)cccc4F)=N3)cc2)cc1` (stereo not shown) [Compound 13], the chromatographic logP was 1.71 in data set [1] (reversed-phase C18 HPLC column; HPLC, acidic range pH 2.3, 0.1% aqueous phosphoric acid/acetonitrile; marked a), read-out: log P (pH 2.3)) and 2.78 in [1] (reversed-phase C18 HPLC column; HPLC, neutral range pH 7.5, 0.01 molar phosphate buffer/acetonitrile; marked b), read-out: log P (pH 7.5)). The Activity/kill in % in data set [10] (20 ppm) came out at 0%; in [10] (100 ppm), 30%.
As to `CC(C)COC(=O)Nc1ccc(-c2ccc(C3CCC(c4c(F)cccc4F)=N3)cc2)cc1` (stereo not shown) [Compound 8], the figures for the chromatographic logP in data set [1] (setting [11]) and in [1] (setting [12]) were 3.32 and 4.54, respectively. Further, the “Kill rate in % after 7 d” value in data set [5], in [6], in data set [7] and in data set [8] was 100% in each case. Moreover, the Activity/kill in % in [9] (4 μg/animal) is given as 0%; in data set [9] (20 μg/animal), 40%; in data set [9] (100 μg/animal), 80%.
Turning to `CCCN(CCC)CCOC(=O)Nc1ccc(-c2ccc(C3CCC(c4c(F)cccc4F)=N3)cc2)cc1` (stereo not shown) [Compound 29], the chromatographic logP in data set [1] (setting [11]) stood at 1.74; in data set [1] (setting [12]) it was 5.52. Further, the pest or weed control at 100 ppm in data set [3] and in data set [4] was ≥ 85% throughout.
